How the values were obtained:
[1] = system: human lung cancer strain NCI-H441; assay: cells; settings: NCI-H441, 96 h, read-out: NCI-H441 IC50 (nM), NCI-H441 cell proliferation, 4 days, CellTiter-Glo;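 further: cell proliferation inhibition after four days measured by CellTiter-Glo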
[2] = target: GDP-bound KRAS wild-type protein (Homo sapiens, UniProt P01116); assay: Binding to KRAS by surface plasmon resonance (SPR), Single Cycle Kinetics; settings: SPR, Single Cycle Kinetics, GDP-bound KRAS wild-type protein; read-out: KRAS KD
[3] = target: GDP-bound HRAS wild-type protein (Homo sapiens, UniProt P01112); assay: Binding to HRAS by surface plasmon resonance (SPR), Single Cycle Kinetics; settings: ratio of KD for GDP-bound HRAS wild-type protein to KD for KRAS, SPR
[4] = target: GDP-bound NRAS wild-type protein (Homo sapiens, UniProt P01111); assay: Binding to NRAS by surface plasmon resonance (SPR), Single Cycle Kinetics; settings: ratio of KD for GDP-bound NRAS wild-type protein to KD for KRAS, SPR
GDP-bound NRAS wild-type protein, sequence (P01111 whole entry): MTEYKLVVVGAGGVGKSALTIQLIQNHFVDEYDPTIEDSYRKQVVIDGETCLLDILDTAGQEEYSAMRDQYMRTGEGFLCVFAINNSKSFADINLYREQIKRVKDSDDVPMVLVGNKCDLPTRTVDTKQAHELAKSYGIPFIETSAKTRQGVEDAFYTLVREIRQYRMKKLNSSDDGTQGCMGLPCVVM

GDP-bound HRAS wild-type protein, sequence (P01112 whole entry): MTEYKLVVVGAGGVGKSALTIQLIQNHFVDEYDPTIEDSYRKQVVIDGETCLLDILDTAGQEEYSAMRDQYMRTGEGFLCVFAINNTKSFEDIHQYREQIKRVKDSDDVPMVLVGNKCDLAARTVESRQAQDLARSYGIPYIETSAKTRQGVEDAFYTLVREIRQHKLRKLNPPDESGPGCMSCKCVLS
GDP-bound KRAS wild-type protein, sequence (P01116 whole entry): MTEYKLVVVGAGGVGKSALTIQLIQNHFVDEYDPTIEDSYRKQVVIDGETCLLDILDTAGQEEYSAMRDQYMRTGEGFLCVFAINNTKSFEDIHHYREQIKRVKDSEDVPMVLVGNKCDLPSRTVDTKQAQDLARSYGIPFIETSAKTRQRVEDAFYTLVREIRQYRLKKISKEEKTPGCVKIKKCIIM

SMILES | IC50 [1] [nM] | Kd [2] [nM] | HRAS/KRAS (KD ratio) [3] | NRAS/KRAS (KD ratio) [4]
CCCN(C)C(=O)[C@@H]1CC(=O)N(C)[C@@H](COC)C(=O)N[C@@H]([C@@H](C)CC)C(=O)N(C)CC(=O)N(C)[C@H]2C/C=C\CCN(C2=O)[C@@H](Cc2ccc(C(F)(F)F)cc2)C(=O)N(C)CC(=O)N[C@@H](CCc2cc(F)c(C(F)(F)F)c(F)c2)C(=O)N2C[C@H](OCC)C[C@H]2C(=O)NC2(CC(C)(C)C2)C(=O)N(C)[C@@H](C2CCCC2)C(=O)N1C [PP1672] | 6 | 0.087 | A (a compound having 10 or more and less than 20 is denoted as A) | A (a compound having 10 or more and less than 20 is denoted as A)
CCCOC[C@H]1C(=O)N[C@@H]([C@@H](C)CC)C(=O)N(C)CC(=O)N(C)[C@H]2C/C=C\CCN(C2=O)[C@@H](Cc2ccc(C(F)(F)F)cc2)C(=O)N(C)CC(=O)N[C@@H](CCc2cc(F)c(C(F)(F)F)c(F)c2)C(=O)N2C[C@H](OCC)C[C@H]2C(=O)NC2(CC(C)(C)C2)C(=O)N(C)[C@@H](C2CCCC2)C(=O)N(C)[C@H](C(=O)N(C)CCC)CC(=O)N1C [PP1673] | 6 | 0.16 | A (a compound having 10 or more and less than 20 is denoted as A) | A (a compound having 10 or more and less than 20 is denoted as A)
CCO[C@@H]1C[C@H]2C(=O)NC3(CC(C)(C)C3)C(=O)N(C)[C@@H](C3CCCC3)C(=O)N(C)[C@H](C(=O)N(C)C)CC(=O)N(C)[C@@H](C)C(=O)N[C@@H]([C@@H](C)CC)C(=O)N(C)CC(=O)N(C)[C@H]3C/C=C\CCN(C3=O)[C@@H](Cc3ccc(C(F)(F)F)cc3)C(=O)N(C)CC(=O)N[C@@H](CCc3ccc(C(F)(F)F)c(OC)c3)C(=O)N2C1 [PP1674] | 5.1 | 0.036 | A (a compound having 10 or more and less than 20 is denoted as A) | A (a compound having 10 or more and less than 20 is denoted as A)
CCO[C@@H]1C[C@H]2C(=O)NC3(CC(C)(C)C3)C(=O)N(C)[C@@H](C3CCCC3)C(=O)N(C)[C@H](C(=O)N(C)C)CC(=O)N(C)[C@@H](CC(F)(F)F)C(=O)N[C@@H]([C@@H](C)CC)C(=O)N(C)CC(=O)N(C)[C@H]3C/C=C\CCN(C3=O)[C@@H](Cc3ccc(C(F)(F)F)cc3)C(=O)N(C)CC(=O)N[C@@H](CCc3ccc(C(F)(F)F)c(OC)c3)C(=O)N2C1 [PP1675] | 3 | 0.071 | B (a compound having 3 or more and less than 10 is denoted as B) | A (a compound having 10 or more and less than 20 is denoted as A)
CCC[C@H]1C(=O)N[C@@H]([C@@H](C)CC)C(=O)N(C)CC(=O)N(C)[C@H]2C/C=C\CCN(C2=O)[C@@H](Cc2ccc(C(F)(F)F)cc2)C(=O)N(C)CC(=O)N[C@@H](CCc2ccc(C(F)(F)F)c(OC)c2)C(=O)N2C[C@H](OCC)C[C@H]2C(=O)NC2(CC(C)(C)C2)C(=O)N(C)[C@@H](C2CCCC2)C(=O)N(C)[C@H](C(=O)N(C)CC)CC(=O)N1C [PP1676] | 5 | 0.12 | A (a compound having 10 or more and less than 20 is denoted as A) | A (a compound having 10 or more and less than 20 is denoted as A)
C#CC[C@H]1C(=O)N[C@@H]([C@@H](C)CC)C(=O)N(C)CC(=O)N(C)[C@H]2C/C=C\CCN(C2=O)[C@@H](Cc2ccc(C(F)(F)F)cc2)C(=O)N(C)CC(=O)N[C@@H](CCc2ccc(C(F)(F)F)c(OC)c2)C(=O)N2C[C@H](OCC)C[C@H]2C(=O)NC2(CC(C)(C)C2)C(=O)N(C)[C@@H](C2CCCC2)C(=O)N(C)[C@H](C(=O)N(C)C)CC(=O)N1C [PP1677] | 3.4 | 0.042 | A (a compound having 10 or more and less than 20 is denoted as A) | A (a compound having 10 or more and less than 20 is denoted as A)
CCO[C@@H]1C[C@H]2C(=O)NC3(CC(C)(C)C3)C(=O)N(C)[C@@H](C3CCCC3)C(=O)N(C)[C@H](C(=O)N(C)CC)CC(=O)N(C)[C@@H](CC3CC3)C(=O)N[C@@H]([C@@H](C)CC)C(=O)N(C)CC(=O)N(C)[C@H]3C/C=C\CCN(C3=O)[C@@H](Cc3ccc(C(F)(F)F)cc3)C(=O)N(C)CC(=O)N[C@@H](CCc3ccc(C(F)(F)F)c(OC)c3)C(=O)N2C1 [PP1678] | 5.6 | 0.17 | B (a compound having 3 or more and less than 10 is denoted as B) | A (a compound having 10 or more and less than 20 is denoted as A)
CCO[C@@H]1C[C@H]2C(=O)NC3(CC(C)(C)C3)C(=O)N(C)[C@@H](C3CCCC3)C(=O)N(C)[C@H](C(=O)N(C)CC)CC(=O)N(C)[C@@H](COC)C(=O)N[C@@H]([C@@H](C)CC)C(=O)N(C)CC(=O)N(C)[C@H]3C/C=C\CCN(C3=O)[C@@H](Cc3ccc(C(F)(F)F)cc3)C(=O)N(C)CC(=O)N[C@@H](CCc3ccc(C(F)(F)F)c(OC)c3)C(=O)N2C1 [PP1679] | 3.1 | 0.065 | A (a compound having 10 or more and less than 20 is denoted as A) | A (a compound having 10 or more and less than 20 is denoted as A)
CC[C@H](C)[C@@H]1NC(=O)[C@H](CC(F)(F)F)N(C)C(=O)C[C@@H](C(=O)N(C)C)N(C)C(=O)[C@H](C2CCCC2)N(C)C(=O)C2(CC(C)(C)C2)NC(=O)[C@@H]2C[C@H](C)CN2C(=O)[C@H](CCc2cc(F)c(C(F)(F)F)c(F)c2)NC(=O)CN(C)C(=O)[C@H](Cc2ccc(C(F)(F)F)cc2)N2CC/C=C\C[C@@H](C2=O)N(C)C(=O)CN(C)C1=O [PP1682] | 2.6 | 0.082 | A (a compound having 10 or more and less than 20 is denoted as A) | AA (a compound having 20 or more is denoted as AA)
CCC[C@H]1C(=O)N[C@@H]([C@@H](C)CC)C(=O)N(C)CC(=O)N(C)[C@H]2C/C=C\CCN(C2=O)[C@@H](Cc2ccc(C(F)(F)F)cc2)C(=O)N(C)CC(=O)N[C@@H](CCc2cc(F)c(C(F)(F)F)c(F)c2)C(=O)N2C[C@@H](C)C[C@H]2C(=O)NC2(CC(C)(C)C2)C(=O)N(C)[C@@H](C2CCCC2)C(=O)N(C)[C@H](C(=O)N(C)C)CC(=O)N1C [PP1683] | 2.5 | 0.097 | A (a compound having 10 or more and less than 20 is denoted as A) | A (a compound having 10 or more and less than 20 is denoted as A)
CC[C@H](C)[C@@H]1NC(=O)[C@H](CC2CCC2)N(C)C(=O)C[C@@H](C(=O)N(C)C)N(C)C(=O)[C@H](C2CCCC2)N(C)C(=O)C2(CC(C)(C)C2)NC(=O)[C@@H]2C[C@H](C)CN2C(=O)[C@H](CCc2cc(F)c(C(F)(F)F)c(F)c2)NC(=O)CN(C)C(=O)[C@H](Cc2ccc(C(F)(F)F)cc2)N2CC/C=C\C[C@@H](C2=O)N(C)C(=O)CN(C)C1=O [PP1684] | 7.7 | 0.15 | A (a compound having 10 or more and less than 20 is denoted as A) | A (a compound having 10 or more and less than 20 is denoted as A)
CCCN(C)C(=O)[C@@H]1CC(=O)N(C)[C@@H](CC(F)F)C(=O)N[C@@H]([C@@H](C)CC)C(=O)N(C)CC(=O)N(C)[C@H]2C/C=C\CCN(C2=O)[C@@H](Cc2ccc(C(F)(F)F)cc2)C(=O)N(C)CC(=O)N[C@@H](CCc2cc(F)c(C(F)(F)F)c(F)c2)C(=O)N2C[C@H](F)C[C@H]2C(=O)NC2(CC(C)(C)C2)C(=O)N(C)[C@@H](C2CCCC2)C(=O)N1C [PP1687] | 2.7 | 0.075 | A (a compound having 10 or more and less than 20 is denoted as A) | A (a compound having 10 or more and less than 20 is denoted as A)
CC[C@H](C)[C@@H]1NC(=O)[C@H](CC(F)(F)F)N(C)C(=O)C[C@@H](C(=O)N(C)C)N(C)C(=O)[C@H](C2CCCC2)N(C)C(=O)C2(CC(C)(C)C2)NC(=O)[C@@H]2C[C@@H](F)CN2C(=O)[C@H](CCc2cc(F)c(C(F)(F)F)c(F)c2)NC(=O)CN(C)C(=O)[C@H](Cc2ccc(C(F)(F)F)cc2)N2CC/C=C\C[C@@H](C2=O)N(C)C(=O)CN(C)C1=O [PP1688] | 1.5 | 0.025 | A (a compound having 10 or more and less than 20 is denoted as A) | A (a compound having 10 or more and less than 20 is denoted as A)
CCC[C@H]1C(=O)N[C@@H]([C@@H](C)CC)C(=O)N(C)CC(=O)N(C)[C@H]2C/C=C\CCN(C2=O)[C@@H](Cc2ccc(C(F)(F)F)cc2)C(=O)N(C)CC(=O)N[C@@H](CCc2cc(F)c(C(F)(F)F)c(F)c2)C(=O)N2C[C@H](F)C[C@H]2C(=O)NC2(CC(C)(C)C2)C(=O)N(C)[C@@H](C2CCCC2)C(=O)N(C)[C@H](C(=O)N(C)C)CC(=O)N1C [PP1689] | 1.4 | 0.023 | B (a compound having 3 or more and less than 10 is denoted as B) | A (a compound having 10 or more and less than 20 is denoted as A)
C#CC[C@H]1C(=O)N[C@@H]([C@@H](C)CC)C(=O)N(C)CC(=O)N(C)[C@H]2C/C=C\CCN(C2=O)[C@@H](Cc2ccc(C(F)(F)F)cc2)C(=O)N(C)CC(=O)N[C@@H](CCc2cc(F)c(C(F)(F)F)c(F)c2)C(=O)N2C[C@H](F)C[C@H]2C(=O)NC2(CC(C)(C)C2)C(=O)N(C)[C@@H](C2CCCC2)C(=O)N(C)[C@H](C(=O)N(C)CC)CC(=O)N1C [PP1691] | 3.1 | 0.06 | A (a compound having 10 or more and less than 20 is denoted as A) | A (a compound having 10 or more and less than 20 is denoted as A)

— patent publication US20240158446A1, “CYCLIC COMPOUND HAVING SELECTIVE INHIBITORY ACTION ON KRAS OVER HRAS AND NRAS” (CHUGAI SEIYAKU KABUSHIKI KAISHA, priority 2021, published 2024)
